Test results from patent publication US10526291B2, “Potent dual BRD4-kinase inhibitors as cancer therapeutics” (H. Lee Moffitt Cancer Center and Research Institute, Inc., priority 2014, dated 2020).
Converted amounts (≈) assume the structure as drawn. “And” between values parts separate entries of the source, which are not always exact repeats. Identical values can stand only once. Like-named read-outs stand apart in the source and are kept apart here.

How the values were obtained:
Solubility in PBS buffer = assay type: physicochemical
BRD4 [1] = target: T1, BRD4 (Homo sapiens, UniProt O60885); test: Differential Scanning Fluorimetry (DSF), stability of BRD4 upon ligand binding; conditions: for DSF ΔTm (° C.) / ΔTm at 4 µM: 100 μM protein, 4 μM compound and 2% DMSO; for IC50: estimated
Procedure: (§1) DSF=Differential Scanning Fluorimetry; provides a measure of the increased stability of BRD4 upon ligand binding The DSF experiment was run at 100 μM protein, 4 μM compound and 2% DMSO.

UKE-1 = UKE-1 cell IC50; assay type: cell-based; conditions: UKE1
MV4-11 AML cells = test: MV-4-11 cell IC50 (antiproliferative activity); assay type: cell-based; conditions: Homo sapiens
Procedure: Cellular activity of promising compounds is assessed using MM.1S and MV4-11 AML cells using c-Myc levels as biomarker (6-12 hr treatment) and antiproliferative activity (48-72 hr treatment) as described (Ciceri et al., Dual kinase-bromodomain inhibitors for rationally designed polypharmacology. Nat Chem Biol 2014).

MM.1S cells = test: MM.1S cell survival, MTT assay; assay type: cell-based; conditions: Homo sapiens, MM1.S, 72 h, 72 hours compound exposure
BRD2 = target: T2, BRD2 (Homo sapiens, UniProt P25440); test: BRD2 IC50 (RB, commercial BRD panel); assay type: binding
T2 construct: purchased

JAK1 = target: T3, JAK1 (Homo sapiens, UniProt P23458); test: JAK1 IC50 (RB, commercial kinase panel); assay type: biochemical
T3 construct: purchased

HEK293 = HEK293 cell IC50; assay type: cell-based; conditions: Homo sapiens
BRD4 [2] = target: T1, BRD4; test: BRD4 IC50 (RB, commercial BRD panel); assay type: binding; conditions: read-out: BRD4 IC50
FLT3 = target: T4, FLT3 (Homo sapiens, UniProt P36888); test: FLT3 IC50 (RB, commercial kinase panel); assay type: biochemical
T4 construct: purchased
T4 sequence (P36888 27-993): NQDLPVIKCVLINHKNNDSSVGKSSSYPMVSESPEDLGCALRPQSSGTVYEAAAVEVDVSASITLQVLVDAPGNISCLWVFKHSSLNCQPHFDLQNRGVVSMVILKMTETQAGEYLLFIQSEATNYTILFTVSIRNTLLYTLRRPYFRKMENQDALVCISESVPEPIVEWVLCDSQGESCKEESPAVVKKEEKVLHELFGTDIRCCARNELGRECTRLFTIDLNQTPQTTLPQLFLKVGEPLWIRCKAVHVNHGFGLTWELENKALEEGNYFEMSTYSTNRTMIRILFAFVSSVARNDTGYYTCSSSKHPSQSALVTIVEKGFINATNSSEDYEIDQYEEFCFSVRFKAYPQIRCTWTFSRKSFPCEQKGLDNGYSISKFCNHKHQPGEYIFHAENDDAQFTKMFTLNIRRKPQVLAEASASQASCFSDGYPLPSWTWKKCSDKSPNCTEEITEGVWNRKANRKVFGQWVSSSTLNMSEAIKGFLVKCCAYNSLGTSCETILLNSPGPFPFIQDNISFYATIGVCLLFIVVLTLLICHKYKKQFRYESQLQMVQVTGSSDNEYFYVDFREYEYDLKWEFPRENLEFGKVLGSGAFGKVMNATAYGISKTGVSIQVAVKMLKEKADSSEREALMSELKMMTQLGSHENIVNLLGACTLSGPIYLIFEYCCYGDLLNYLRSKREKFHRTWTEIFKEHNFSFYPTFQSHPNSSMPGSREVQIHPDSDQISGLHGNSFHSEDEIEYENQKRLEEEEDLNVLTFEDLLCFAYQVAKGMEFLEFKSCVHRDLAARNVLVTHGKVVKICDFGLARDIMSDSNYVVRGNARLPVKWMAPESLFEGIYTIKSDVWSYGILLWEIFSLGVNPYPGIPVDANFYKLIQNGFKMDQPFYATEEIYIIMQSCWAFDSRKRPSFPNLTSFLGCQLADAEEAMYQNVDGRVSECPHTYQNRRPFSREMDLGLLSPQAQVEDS

JAK3 = target: T5, JAK3 (Homo sapiens, UniProt P52333); test: JAK3 IC50 (RB, commercial kinase panel); assay type: biochemical
T5 construct: purchased
T5 sequence (P52333 1-1124): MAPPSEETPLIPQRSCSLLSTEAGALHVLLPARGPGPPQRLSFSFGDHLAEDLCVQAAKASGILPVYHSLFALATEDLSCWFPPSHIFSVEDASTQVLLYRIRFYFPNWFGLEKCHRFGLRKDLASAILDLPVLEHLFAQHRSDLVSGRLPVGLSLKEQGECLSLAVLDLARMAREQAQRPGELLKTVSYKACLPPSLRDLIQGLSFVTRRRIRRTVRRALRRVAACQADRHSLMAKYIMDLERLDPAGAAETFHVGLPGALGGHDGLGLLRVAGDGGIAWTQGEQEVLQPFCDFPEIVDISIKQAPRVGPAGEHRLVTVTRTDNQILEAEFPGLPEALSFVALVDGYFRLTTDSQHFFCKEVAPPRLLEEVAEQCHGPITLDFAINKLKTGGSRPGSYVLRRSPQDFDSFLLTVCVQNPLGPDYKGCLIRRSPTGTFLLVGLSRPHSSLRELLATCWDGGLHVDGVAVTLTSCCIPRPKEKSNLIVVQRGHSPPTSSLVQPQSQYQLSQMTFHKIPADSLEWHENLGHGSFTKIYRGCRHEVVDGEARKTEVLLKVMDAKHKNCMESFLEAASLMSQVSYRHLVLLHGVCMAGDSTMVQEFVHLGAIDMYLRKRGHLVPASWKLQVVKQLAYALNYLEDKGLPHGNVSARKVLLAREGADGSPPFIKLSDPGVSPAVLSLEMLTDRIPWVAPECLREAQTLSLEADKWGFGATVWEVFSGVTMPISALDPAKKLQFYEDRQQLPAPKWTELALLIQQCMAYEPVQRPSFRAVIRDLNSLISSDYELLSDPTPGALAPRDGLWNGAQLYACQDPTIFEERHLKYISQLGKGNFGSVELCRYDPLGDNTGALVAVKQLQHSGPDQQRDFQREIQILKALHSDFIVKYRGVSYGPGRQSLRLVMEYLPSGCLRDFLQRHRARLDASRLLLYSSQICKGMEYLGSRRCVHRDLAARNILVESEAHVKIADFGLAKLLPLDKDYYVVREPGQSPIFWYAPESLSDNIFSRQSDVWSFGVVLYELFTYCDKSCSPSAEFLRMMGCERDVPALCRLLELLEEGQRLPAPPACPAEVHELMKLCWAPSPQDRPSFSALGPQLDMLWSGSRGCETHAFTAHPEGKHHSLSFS

SAOS-2 = SAOS-2 cell IC50; assay type: cell-based; conditions: Homo sapiens
BRD3 = target: T6, BRD3 (Homo sapiens, UniProt Q15059); test: BRD3 IC50 (RB, commercial BRD panel); assay type: binding
T6 construct: purchased

BRDT = target: T7, BRDT (Homo sapiens, UniProt Q58F21); test: BRDT IC50 (RB, commercial BRD panel); assay type: binding
T7 construct: purchased

JAK2 = target: T8, JAK2 (Homo sapiens, UniProt O60674); test: JAK2 IC50 (RB, commercial kinase panel); assay type: biochemical
T8 construct: purchased

c-Myc in MM.1S cells = conditions: literature; cited from earlier work
[3] = Precipitation in DSF buffer; assay type: physicochemical
Procedure: as §1

T8 sequence (O60674 whole entry): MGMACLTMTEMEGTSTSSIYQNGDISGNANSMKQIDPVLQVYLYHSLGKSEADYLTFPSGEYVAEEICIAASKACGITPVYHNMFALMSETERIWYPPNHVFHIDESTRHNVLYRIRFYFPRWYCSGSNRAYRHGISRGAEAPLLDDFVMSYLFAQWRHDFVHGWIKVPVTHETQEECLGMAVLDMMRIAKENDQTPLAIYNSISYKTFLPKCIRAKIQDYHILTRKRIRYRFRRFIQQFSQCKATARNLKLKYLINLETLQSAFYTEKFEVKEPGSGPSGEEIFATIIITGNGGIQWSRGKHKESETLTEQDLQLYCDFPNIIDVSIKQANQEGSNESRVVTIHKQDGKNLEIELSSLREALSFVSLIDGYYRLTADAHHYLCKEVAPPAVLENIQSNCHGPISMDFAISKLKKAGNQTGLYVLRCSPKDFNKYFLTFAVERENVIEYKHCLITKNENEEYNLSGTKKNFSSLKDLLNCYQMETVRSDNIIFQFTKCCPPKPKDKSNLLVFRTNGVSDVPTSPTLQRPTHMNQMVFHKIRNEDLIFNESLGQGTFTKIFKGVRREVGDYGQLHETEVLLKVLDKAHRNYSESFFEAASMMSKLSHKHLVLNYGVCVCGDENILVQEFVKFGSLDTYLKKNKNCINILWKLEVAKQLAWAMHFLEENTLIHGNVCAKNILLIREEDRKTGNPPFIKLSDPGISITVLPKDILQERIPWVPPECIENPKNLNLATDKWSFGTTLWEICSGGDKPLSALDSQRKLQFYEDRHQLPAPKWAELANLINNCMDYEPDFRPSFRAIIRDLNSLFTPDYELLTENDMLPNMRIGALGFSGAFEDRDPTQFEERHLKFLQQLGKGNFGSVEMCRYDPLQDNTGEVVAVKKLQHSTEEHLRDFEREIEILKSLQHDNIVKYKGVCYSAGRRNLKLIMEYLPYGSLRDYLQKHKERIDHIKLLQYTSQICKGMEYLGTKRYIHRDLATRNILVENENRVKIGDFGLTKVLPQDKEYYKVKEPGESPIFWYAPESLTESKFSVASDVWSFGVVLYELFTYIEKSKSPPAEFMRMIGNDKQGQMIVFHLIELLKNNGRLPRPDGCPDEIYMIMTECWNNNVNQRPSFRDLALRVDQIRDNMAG
T2 sequence (P25440 whole entry): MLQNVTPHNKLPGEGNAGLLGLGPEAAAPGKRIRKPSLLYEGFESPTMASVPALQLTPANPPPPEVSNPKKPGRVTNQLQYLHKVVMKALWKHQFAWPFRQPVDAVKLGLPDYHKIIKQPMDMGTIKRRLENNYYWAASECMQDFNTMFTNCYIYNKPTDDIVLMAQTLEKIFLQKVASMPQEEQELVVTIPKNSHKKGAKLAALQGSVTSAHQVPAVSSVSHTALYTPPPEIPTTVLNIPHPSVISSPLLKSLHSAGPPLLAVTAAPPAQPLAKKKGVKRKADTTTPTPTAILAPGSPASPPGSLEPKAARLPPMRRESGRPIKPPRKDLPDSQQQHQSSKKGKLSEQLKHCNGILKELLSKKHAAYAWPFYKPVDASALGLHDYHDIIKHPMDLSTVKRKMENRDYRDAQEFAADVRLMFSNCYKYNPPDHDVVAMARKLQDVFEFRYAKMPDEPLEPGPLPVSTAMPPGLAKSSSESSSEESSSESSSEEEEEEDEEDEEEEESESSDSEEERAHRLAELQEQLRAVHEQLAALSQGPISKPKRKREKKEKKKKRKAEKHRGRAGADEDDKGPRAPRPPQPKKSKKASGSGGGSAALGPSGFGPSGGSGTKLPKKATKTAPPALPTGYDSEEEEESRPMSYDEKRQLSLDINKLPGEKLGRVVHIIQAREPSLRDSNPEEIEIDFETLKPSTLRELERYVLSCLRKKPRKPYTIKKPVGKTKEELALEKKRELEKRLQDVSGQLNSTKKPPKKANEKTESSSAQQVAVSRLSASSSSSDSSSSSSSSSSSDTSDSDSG
T6 sequence (Q15059 whole entry): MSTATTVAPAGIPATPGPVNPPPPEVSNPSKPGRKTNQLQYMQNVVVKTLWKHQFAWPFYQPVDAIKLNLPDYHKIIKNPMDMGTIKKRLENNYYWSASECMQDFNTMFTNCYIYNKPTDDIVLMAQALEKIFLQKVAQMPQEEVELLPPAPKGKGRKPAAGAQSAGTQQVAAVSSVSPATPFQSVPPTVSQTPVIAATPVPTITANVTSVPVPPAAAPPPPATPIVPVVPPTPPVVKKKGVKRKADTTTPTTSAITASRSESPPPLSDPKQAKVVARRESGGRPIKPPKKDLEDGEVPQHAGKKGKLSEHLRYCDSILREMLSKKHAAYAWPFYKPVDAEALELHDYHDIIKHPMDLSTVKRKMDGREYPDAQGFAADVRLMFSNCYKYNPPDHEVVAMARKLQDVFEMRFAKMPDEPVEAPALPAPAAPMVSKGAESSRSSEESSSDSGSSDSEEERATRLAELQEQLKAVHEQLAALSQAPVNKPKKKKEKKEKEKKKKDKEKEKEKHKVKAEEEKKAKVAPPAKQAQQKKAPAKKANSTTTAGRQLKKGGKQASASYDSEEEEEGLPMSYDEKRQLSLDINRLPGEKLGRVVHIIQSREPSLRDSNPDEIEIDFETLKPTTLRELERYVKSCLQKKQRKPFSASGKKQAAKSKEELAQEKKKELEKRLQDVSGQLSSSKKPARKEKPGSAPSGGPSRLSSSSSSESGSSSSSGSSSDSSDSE
T3 sequence (P23458 whole entry): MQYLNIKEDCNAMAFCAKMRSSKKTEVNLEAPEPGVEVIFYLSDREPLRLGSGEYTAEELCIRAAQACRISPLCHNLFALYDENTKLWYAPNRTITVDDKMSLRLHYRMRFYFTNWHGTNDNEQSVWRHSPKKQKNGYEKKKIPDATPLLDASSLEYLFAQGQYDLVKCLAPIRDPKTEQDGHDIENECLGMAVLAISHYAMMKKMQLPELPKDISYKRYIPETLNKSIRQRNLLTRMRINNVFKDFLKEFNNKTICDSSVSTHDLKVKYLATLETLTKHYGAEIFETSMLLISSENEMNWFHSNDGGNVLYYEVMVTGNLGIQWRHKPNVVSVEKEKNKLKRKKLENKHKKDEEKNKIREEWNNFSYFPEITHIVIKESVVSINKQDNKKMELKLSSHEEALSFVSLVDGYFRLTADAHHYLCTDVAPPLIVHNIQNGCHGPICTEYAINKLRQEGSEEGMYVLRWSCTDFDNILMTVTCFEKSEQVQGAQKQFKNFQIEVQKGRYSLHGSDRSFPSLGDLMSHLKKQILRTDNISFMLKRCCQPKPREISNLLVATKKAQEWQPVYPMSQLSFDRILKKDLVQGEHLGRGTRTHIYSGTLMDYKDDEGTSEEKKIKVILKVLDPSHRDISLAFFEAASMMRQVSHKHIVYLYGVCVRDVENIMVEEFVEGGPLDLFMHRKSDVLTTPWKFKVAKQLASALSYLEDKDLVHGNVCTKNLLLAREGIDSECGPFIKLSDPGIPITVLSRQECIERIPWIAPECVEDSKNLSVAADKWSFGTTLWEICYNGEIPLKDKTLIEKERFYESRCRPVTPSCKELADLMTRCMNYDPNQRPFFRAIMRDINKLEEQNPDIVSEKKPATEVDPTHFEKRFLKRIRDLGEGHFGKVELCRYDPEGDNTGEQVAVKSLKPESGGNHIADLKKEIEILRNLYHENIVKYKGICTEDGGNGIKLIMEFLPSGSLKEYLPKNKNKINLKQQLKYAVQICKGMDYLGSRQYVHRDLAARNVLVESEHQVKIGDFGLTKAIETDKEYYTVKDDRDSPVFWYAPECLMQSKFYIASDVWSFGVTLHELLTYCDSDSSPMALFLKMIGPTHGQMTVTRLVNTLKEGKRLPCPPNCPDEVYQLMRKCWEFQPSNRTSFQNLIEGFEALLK

Row | ΔTm at 4 µM (BRD4 [1]) [°C] | IC50 (BRD4 [1]) | IC50 (UKE-1) [nM] | IC50 (SAOS-2) [nM] | SMILES | IC50 (MM.1S cells) [nM] | IC50 (HEK293) [nM] | further results
1 | – | – | – | – | Cc1cnc(Nc2ccc(N3CCN(C)CC3)cc2)nc1Nc1ccc(Cl)c(NS(=O)(=O)C(C)(C)C)c1 [SG3-014B2.MSA] | – | – | Solubility (Solubility in PBS buffer; PBS buffer (15% HPCD)): Solubility > 14.4 mg mg in 1 mL; Solubility (Solubility in PBS buffer; PBS buffer (~9.3% DMSO)): DMSO) = 0.416 mg mg in 1 mL; Solubility (Solubility in PBS buffer; aqueous with cosolvent or surfactant or cyclodextrin, PBS buffer (~9.3% DMSO), read-out: Solubility): 650 µM (≈ 354 µg/mL)
2 | 11 ± 0.12 | 6.1 nM and 4.6 nM | 1600 | – | Cc1cnc(Nc2ccc(C(=O)NC3CCN(C)CC3)cc2)nc1Nc1ccc(Cl)c(NS(=O)(=O)C(C)(C)C)c1 | – | – | DSF ΔTm (° C.) (BRD4 [1]): 11 ± 0.12 11 ± 0.12 °C; IC50 (MV4-11 AML cells): 71 nM
3 | 8.54 ± 0.088 | 25 nM | 260 | 184 | Cc1cnc(Nc2ccc(N3CCN(C)CC3)cc2)nc1Nc1cccc(NS(=O)(=O)C(C)(C)C)c1 | 400 | 1200 | IC50 (BRD2): 625 nM; IC50 (JAK1): 4.58 nM; IC50 (BRD4 [2]): 10.2 nM; IC50 (FLT3): 0.917 nM; IC50 (JAK3): 91.4 nM; IC50 (BRD3): 12.5 nM; IC50 (BRDT): 29.1 nM
4 | 4.1 ± 0.14 | 930 nM | – | – | COc1cc(Nc2nc(Nc3ccc(N4CCN(C)CC4)cc3)nc(C)c2C)ccc1Cl | – | 840 | IC50 (JAK2): 14000 nM
5 | 4.8 ± 0.058 | 540 nM | – | – | COc1cc(Nc2nc(Nc3ccc(N4CCN(C)CC4)cc3)ncc2Cl)ccc1Cl | 450 | 1400 | –
6 | – | – | – | – | Cc1cnc(Nc2ccc(N3CCN(C)CC3)cc2)nc1Nc1cccc(S(=O)(=O)NC(C)(C)C)c1 [TG101209] | – | – | downregulation of c-Myc (c-Myc in MM.1S cells): strong downregulation of c-Myc
7 | 9.57 ± 0.086 | 10 nM | 512 | 567 | Cc1cnc(Nc2ccc(N3CCN(C)CC3)cc2)nc1Nc1ccc(Cl)c(NS(=O)(=O)C(C)(C)C)c1 [drawing 109] | 74 | – | IC50 (BRD2): 81.4 nM; IC50 (JAK2): 11.2 nM; IC50 (BRD4 [2]): 4.04 nM; IC50 (FLT3): 9.71 nM; IC50 (MV4-11 AML cells): 186 nM; IC50 (BRD3): 16.5 nM; IC50 (BRDT): 27.8 nM
8 | 0.57 ± 0.124 | 16800 nM | – | – | CN1CCN(c2ccc(Nc3ncc(F)c(Nc4ccc(Cl)c(NS(=O)(=O)C(C)(C)C)c4)n3)cc2F)CC1 | 160 | – | Precipitation in DSF buffer [3]: Precipitation observed in DSF buffer
9 | 2.46 ± 0.111 | 4950 nM | – | – | Cc1cnc(Nc2ccc(N3CCN(C)CC3)c(C(F)(F)F)c2)nc1Nc1ccc(Cl)c(NS(=O)(=O)C(C)(C)C)c1 | – | – | Precipitation in DSF buffer [3]: Precipitation interferes with the assay
10 | 6.83 ± 0.129 | – | – | 425 | Cc1cnc(Nc2ccc(N3CCN(C)CC3)cc2)nc1Nc1cccc(S(=O)(=O)NC(C)(C)C)c1 [drawing 27] | – | – | DSF ΔTm (° C.) (BRD4 [1]): 7.55 ± 0.154 °C
